Biological target: T1, human a-thrombin (Homo sapiens, UniProt P00734)
T1 construct: human a-thrombin
Test: Proteinase inhibition, human a-thrombin
Type: biochemical
Conditions: 25° C., 0.05M TRIS buffer pH 7.4, 0.15M NaCl, 0.1% PEG
Method: Assays of human a-thrombin and bovine trypsin were performed at 25° C. in 0.05M TRIS buffer pH 7.4, 0.15M NaCl, 0.1% PEG. Trypsin assays also contained 1 mM CaCl2.
Concentrations of stock solutions of Z-GPR-afc were determined from measurements of absorbance at 380 nm of the 7-amino-4-trifluoromethyl coumarin produced upon complete hydrolysis of an aliquot of the stock solution by thrombin.
Times required to achieve equilibration between enzyme and inhibitor were determined in control experiments. Initial velocities of product formation in the absence (Vo) or presence of inhibitor (Vi) were measured. Assuming competitive inhibition, and that unity is negligible compared Km /[S], […] (where [S], [I], and e respectively represent the total concentrations, of substrate, inhibitor and enzyme), the equilibrium constant (Ki) for dissociation of the inhibitor from the enzyme can be obtained from the dependence of Vo /Vi on [I] shown in equation 1.

SMILES | Ki [nM]
N=C(N)N1CCC(CNC(=O)[C@@H]2CCCN2C(=O)CC(c2ccccc2)c2ccccc2)CC1 | 2.7
N=C(N)N1CCC(CNC(=O)[C@@H]2CCCN2C(=O)C2(O)c3ccccc3-c3ccccc32)CC1 | 1.1
